Test results published in patent publication US20240108740A1, “THERAPEUTIC COMPOSITIONS INCLUDING SPN10 AND USES THEREOF” (Stealth BioTherapeutics Inc., priority 2022, published 2024).
Residues, ends and D or L forms follow the SMILES beside them.

Key:
[1] = tested on: Sprague Dawley rats; test: Example 37: acute renal injury caused by ischemia-reperfusion; format: in vivo, rat
Procedure: […] Sprague Dawley rats (250-300 g) will be assigned to one of the following groups: (1) sham surgery (no I/R); (2) I/R+saline vehicle; (3) I/R+peptide conjugates; (4) I/R+aromatic-cationic peptides; (5) I/R+SPN10(s); (6) I/R+SPN10(s) and aromatic-cationic peptides. Peptide conjugates (3 mg/kg in saline); aromatic-cationic peptides (an equivalent molar dose of aromatic-cationic peptide based on the concentration of the aromatic-cationic peptide administered in the peptide conjugate treatment group); SPN10(s) (an equivalent molar dose of SPN10 based on the concentration of SPN10 administered in the peptide conjugate treatment group) or SPN10(s) in combination with aromatic-cationic peptides (e.g., an equivalent molar dose of SPN10 based on the concentration of SPN10 administered in the peptide conjugate treatment group and an equivalent molar dose of aromatic-cationic peptide based on the concentration of aromatic-cationic peptide administered in the peptide conjugate treatment group) will be administered 30 minutes before ischemia and immediately before reperfusion. Control animals will be given saline alone according to the same schedule.
Rats will be anesthetized with a mixture of ketamine (90 mg/kg, i.p.) and xylazine (4 mg/kg, i.p.). […] Renal function will be determined by measuring levels of blood urea nitrogen (BUN) and serum creatinine (BioAssay Systems DIUR-500 and DICT-500).
Renal Morphologic Examination: Kidneys will be fixed in 10% neutral-buffered formalin and embedded in paraffin wax for sectioning. Three-micron sections will be stained with hematoxylin-eosin (H&E) and periodic acid-Schiff (PAS), and analyzed by light microscopy. Lesions will be scored based on 1) mitosis and necrosis of individual cells, 2) necrosis of all cells in adjacent proximal convoluted tubules with survival of surrounding tubules, 3) necrosis confined to the distal third of the proximal convoluted tubule with a band of necrosis extending across the inner cortex, and 4) necrosis affecting all three segments of the proximal convoluted tubule. […]

[2] = tested on: Sprague Dawley rats; test: Renal ischemia/reperfusion, no-reflow zone in the kidney; format: in vivo, rat

Structure (SMILES): N=C(N)NCCC[C@H](NC(=O)[C@@H](N)Cc1c[nH]c2ccccc12)C(=O)N[C@@H](Cc1c[nH]c2ccccc12)C(=O)N[C@@H](CCCCN)C(N)=O [SPN10, H-L-Trp-L-Arg-L-Trp-L-Lys-NH2] (H-WRWK-NH2)
- BUN and serum creatinine values ([1]; 30 minutes before ischemia and immediately before reperfusion, 24 hours of reperfusion): improve BUN and serum creatinine values
- tubular cell apoptosis after ischemia and reperfusion ([1]; rat, in vivo): prevent tubular cell apoptosis
- tubular cell injury after ischemia and reperfusion ([1]; rat, in vivo): prevent tubular cell injury
- anatomic zone of no-reflow in the kidney ([2]; 30 minutes before ischemia and before reperfusion): prevent or reduce
- one or more of BUN, serum creatinine, and glomerular filtration rate ([2]; versus untreated control subjects): improve
